Target: hen egg-white lysozyme (Gallus gallus, UniProt P00698)
Assay: 1H–[…] HMQC NMR of caged lysozyme with cage-tethered GlcNAc
Type: biochemical

Kd: 6 µM
SMILES: CC(=O)N[C@H]1C(O)O[C@H](CO)[C@@H](O)[C@@H]1O (stereo partly shown) [GlcNAc, N-acetylglucosamine]
